Results from PubChem BioAssay (NCI).
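Cultured in 96-well plates, cells were exposed to test compound for 48 hours across five concentrations. The concentration for 50% growth inhibition is given as GI50. TGI: total growth inhibition.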

Columns and labels:
Experiment in all cases: growth of human tumour cells (NCI), 48 h
[1] = tested on: 786-0 renal
[2] = tested on: OVCAR-8 ovarian
[3] = tested on: OVCAR-5 ovarian
[4] = tested on: NCI-H23 lung
[5] = tested on: UACC-62 melanoma
[6] = tested on: HS 578T breast
[7] = tested on: HCC-2998 colon
[8] = tested on: MDA-MB-231 breast
[9] = tested on: HT29 colon
[10] = tested on: CAKI-1 renal
[11] = tested on: DU-145 prostate
[12] = tested on: SN12C renal
[13] = tested on: TK-10 renal
[14] = tested on: NCI-H226 lung
[15] = tested on: HL-60(TB) leukemia
[16] = tested on: COLO 205 colon
[17] = tested on: SNB-75 CNS
[18] = tested on: SK-MEL-5 melanoma
[19] = tested on: SK-OV-3 ovarian
[20] = tested on: BT-549 breast
[21] = tested on: MOLT-4 leukemia
[22] = tested on: SW-620 colon
[23] = tested on: UO-31 renal
[24] = tested on: M14 melanoma
[25] = tested on: KM12 colon
[26] = tested on: SR leukemia
[27] = tested on: K-562 leukemia
[28] = tested on: A498 renal
[29] = tested on: HOP-62 NSCLC
[30] = tested on: U251 CNS
[31] = tested on: ACHN renal
[32] = tested on: RXF 393 renal
[33] = tested on: SK-MEL-2 melanoma
[34] = tested on: MALME-3M melanoma
[35] = tested on: IGROV1 ovarian
[36] = tested on: SK-MEL-28 melanoma
[37] = tested on: OVCAR-4 ovarian
[38] = tested on: T-47D breast
[39] = tested on: HCT-15 colon
[40] = tested on: RPMI-8226 leukemia
[41] = tested on: SNB-19 CNS
[42] = tested on: SF-268 CNS
[43] = tested on: MDA-MB-435
[44] = tested on: NCI-H522 lung
[45] = tested on: HCT-116 colon
[46] = tested on: NCI-H460 lung
[47] = tested on: A549 NSCLC
[48] = tested on: HOP-92 NSCLC
[49] = tested on: NCI/ADR-RES ovarian
[50] = tested on: SF-295 CNS
[51] = tested on: PC-3 prostate
[52] = tested on: OVCAR-3 ovarian
[53] = tested on: SF-539 CNS
[54] = tested on: UACC-257 melanoma
[55] = tested on: LOX IMVI melanoma
[56] = tested on: MCF7 breast

For CC(C)C[C@H](NC(=O)Cn1ccc(Nc2ccccc2)cc1=O)B(O)O, the GI50 [1] was 5.55 µM, the TGI [1] was over 100 µM and the GI50 [2] was 5.47 µM. The TGI [2] was over 100 µM, the GI50 [3] was 6.24 µM and the TGI [3] was 90 µM. For the same compound, the GI50 [4] was 3.45 µM, the TGI [4] was over 100 µM and the GI50 [5] was 2.44 µM. It also gave a TGI [5] of 18.1 µM, a GI50 [6] of 1.86 µM and a TGI [6] of 7.16 µM. The GI50 [7] was 2.02 µM, the TGI [7] was 4.76 µM and the GI50 [8] was 3.09 µM. For the same compound, the TGI [8] was 15.2 µM, the GI50 [9] was 1.06 µM and the TGI [9] was 13.2 µM. The GI50 [10] was 4.02 µM, the TGI [10] was 60.4 µM and the GI50 [11] was 10.7 µM. The TGI [11] was over 100 µM, the GI50 [12] was 5.17 µM and the TGI [12] was 28 µM. The GI50 [13] was 3.28 µM, the TGI [13] was 25.3 µM and the GI50 [14] was 0.352 µM. It also gave a TGI [14] of 1.47 µM, a GI50 [15] of 3.32 µM and a TGI [15] of 72.6 µM. For the same compound, the GI50 [16] was 8.25 µM, the TGI [16] was over 100 µM and the GI50 [17] was 4.54 µM. For the same compound, the TGI [17] was 25.3 µM, the GI50 [18] was 0.62 µM and the TGI [18] was 2.88 µM. The GI50 [19] was 11.5 µM, the TGI [19] was over 100 µM and the GI50 [20] was 1.19 µM. For the same compound, the TGI [20] was 11.7 µM, the GI50 [21] was 0.468 µM and the TGI [21] was 11.7 µM. For the same compound, the GI50 [22] was 2 µM, the TGI [22] was 23.9 µM and the GI50 [23] was 5.59 µM. For the same compound, the TGI [23] was 39.6 µM, the GI50 [24] was 1.74 µM and the TGI [24] was 13.7 µM. The GI50 [25] was 3.08 µM, the TGI [25] was 12.4 µM and the GI50 [26] was 0.398 µM. The TGI [26] was over 100 µM, the GI50 [27] was 3.67 µM and the TGI [27] was over 100 µM. It also gave a GI50 [28] of 1.07 µM, a TGI [28] of 6.78 µM and a GI50 [29] of 6.23 µM. It also gave a TGI [29] of 40.9 µM, a GI50 [30] of 5.04 µM and a TGI [30] of over 100 µM. It also gave a GI50 [31] of 3.04 µM, a TGI [31] of over 100 µM and a GI50 [32] of 1.81 µM. For the same compound, the TGI [32] was 4.78 µM, the GI50 [33] was 1.81 µM and the TGI [33] was 21.3 µM. It also gave a GI50 [34] of 2.08 µM, a TGI [34] of 8.77 µM and a GI50 [35] of 6.27 µM. The TGI [35] was over 100 µM, the GI50 [36] was 0.665 µM and the TGI [36] was 4.49 µM. For the same compound, the GI50 [37] was 5.68 µM, the TGI [37] was over 100 µM and the GI50 [38] was 1.01 µM. The TGI [38] was 3.38 µM, the GI50 [39] was 8.66 µM and the TGI [39] was over 100 µM. The GI50 [40] was 0.345 µM, the TGI [40] was 0.949 µM and the GI50 [41] was 16.6 µM. It also gave a TGI [41] of over 100 µM, a GI50 [42] of 2.88 µM and a TGI [42] of 18.6 µM. For the same compound, the GI50 [43] was 0.593 µM, the TGI [43] was 2.29 µM and the GI50 [44] was 0.932 µM. The TGI [44] was 6.44 µM, the GI50 [45] was 0.852 µM and the TGI [45] was 5.02 µM. For the same compound, the GI50 [46] was 8.41 µM, the TGI [46] was 42.5 µM and the GI50 [47] was 8.34 µM. It also gave a TGI [47] of over 100 µM, a GI50 [48] of 2.49 µM and a TGI [48] of 8.23 µM. For the same compound, the GI50 [49] was 65.6 µM, the TGI [49] was over 100 µM and the GI50 [50] was 3.75 µM. For the same compound, the TGI [50] was 40.1 µM, the GI50 [51] was 5.06 µM and the TGI [51] was 36 µM. For the same compound, the GI50 [52] was 0.512 µM, the TGI [52] was 2.78 µM and the GI50 [53] was 0.781 µM. The TGI [53] was 5.81 µM, the GI50 [54] was 1.3 µM and the TGI [54] was 7.68 µM. The GI50 [55] was 0.645 µM, the TGI [55] was 2.27 µM and the GI50 [56] was 0.427 µM. For the same compound, the TGI [56] was over 100 µM.
